Measurements published in ChEMBL document CHEMBL6109153, “Development of Membrane-Targeting Osthole Derivatives Containing Pyridinium Quaternary Ammonium Moieties with Potent Anti-Methicillin-Resistant Staphylococcus aureus Properties” (J Med Chem, 2025).
Active and inactive are the calls of the source. The calls are words filed in the database; no cut-off is given here.

Legend:
[1] = Toxicity in BALB/c mouse assessed as normal behavior at 5 to 40 mg/kg, ip measured for 7 days; type: organism-based; conditions: in vivo, 168 h, dose 5-40 mg/kg, time 7 day
[2] = Toxicity in KM mouse assessed as abnormality in lung at 30 mg/kg, sc by H and E staining based analysis; type: organism-based; conditions: in vivo
[3] = Toxicity in KM mouse assessed as erythema on dorsal skin at 40 mg/kg, sc; type: organism-based; conditions: in vivo
[4] = Toxicity in BALB/c mouse assessed as glossy fur at 5 to 40 mg/kg, ip measured for 7 days; type: organism-based; conditions: in vivo, 168 h, dose 5-40 mg/kg, time 7 day
Staphylococcus aureus [5] = assay: Antibacterial activity against methicillin-resistant Staphylococcus aureus M13 incubated for 16 to 20 hrs by broth microdilution method; type: functional; conditions: time 16-20 hrs
Staphylococcus aureus [6] = assay: Antibacterial activity against methicillin-resistant Staphylococcus aureus M11 infected in BALB/c mouse model of Sepsis assessed as reduction in abscess size on back at 4 mg/kg measured after 24 hrs; type: functional, organism-based
Staphylococcus aureus [7] = assay: Antibacterial activity against methicillin-resistant Staphylococcus aureus M14 incubated for 16 to 20 hrs by broth microdilution method; type: functional; conditions: time 16-20 hrs
Staphylococcus aureus [8] = assay: Disruption of cell membrane in methicillin-resistant Staphylococcus aureus M11 assessed as shrinkage in cell membrane at 4 ug/ml incubated for 4 hrs by SEM analysis; type: functional, organism-based; conditions: dose 4.0 µg/ml
Staphylococcus aureus [9] = assay: Bactericidal activity against methicillin-resistant Staphylococcus aureus M11 at 8 ug/ml measured up to 6 hrs in presence of 50% plasma; type: functional, organism-based; conditions: dose 8.0 µg/ml
Staphylococcus aureus [10] = assay: Antibacterial activity against methicillin-resistant Staphylococcus aureus M11 infected in BALB/c mouse model of Sepsis assessed as reduction in IL-6 level measured after 24 hrs; type: functional, organism-based; conditions: dose 4-8 mg/kg
[11] = Toxicity in BALB/c mouse model of Sepsis infected with methicillin-resistant Staphylococcus aureus M11 assessed as pathological change in spleen at 4 to 8 mg/kg measured after 24 hrs by H and E staining based analysis; type: organism-based; conditions: in vivo, dose 4-8 mg/kg
[12] = Toxicity in BALB/c mouse assessed as lesions in tissues of organs at 30 mg/kg, ip measured for 7 days by H and E staining based analysis; type: organism-based; conditions: in vivo, 168 h, time 7 day
Staphylococcus aureus [13] = assay: Antibacterial activity against methicillin-resistant Staphylococcus aureus M12 incubated for 16 to 20 hrs by broth microdilution method; type: functional; conditions: time 16-20 hrs
[14] = Toxicity in BALB/c mouse model of Sepsis infected with methicillin-resistant Staphylococcus aureus M11 assessed as lesions in liver at 4 to 8 mg/kg measured after 24 hrs by H and E staining based analysis; type: organism-based; conditions: in vivo, dose 4-8 mg/kg
Staphylococcus aureus [15] = assay: Antibacterial activity against methicillin-resistant Staphylococcus aureus M22 incubated for 16 to 20 hrs by broth microdilution method; type: functional; conditions: time 16-20 hrs
Staphylococcus aureus [16] = assay: Antibacterial activity against methicillin-resistant Staphylococcus aureus M11 infected in BALB/c mouse model of Sepsis assessed as reduction in TNF-alpha level measured after 24 hrs; type: functional, organism-based; conditions: dose 4-8 mg/kg
Staphylococcus aureus [17] = assay: Disruption of cell membrane in methicillin-resistant Staphylococcus aureus M11 assessed as increase in red fluorescence in nuclei at 4 ug/ml incubated for 4 hrs by DAPI/PI staining based analysis; type: functional, organism-based; conditions: dose 4.0 µg/ml
Staphylococcus aureus [18] = assay: Induction of bacterial eradication in methicillin-resistant Staphylococcus aureus M11 at 8 times MIC incubated for 4 hrs by time-kill assay; type: functional, organism-based
[19] = Toxicity in BALB/c mouse model of Sepsis infected with methicillin-resistant Staphylococcus aureus M11 assessed as lesions in spleen at 4 to 8 mg/kg measured after 24 hrs by H and E staining based analysis; type: organism-based; conditions: in vivo, dose 4-8 mg/kg
Staphylococcus aureus [20] = assay: Antibacterial activity against methicillin-resistant Staphylococcus aureus M11 infected in BALB/c mouse model of Sepsis assessed as restoration of smoothness in outer skin at 8 mg/kg measured after 24 hrs; type: functional, organism-based
Staphylococcus aureus [21] = assay: Antibacterial activity against methicillin-resistant Staphylococcus aureus M11 infected in BALB/c mouse model of Sepsis assessed as smooth in inner epidermis at 8 mg/kg measured after 24 hrs; type: functional, organism-based
[22] = Cytotoxicity against human L02 cells assessed as cell survival rate at 32 times MIC incubated for 24 hrs by CCK8 assay; type: toxicity, cell-based; conditions: read-out: Survival
[23] = Toxicity in BALB/c mouse model of Sepsis infected with methicillin-resistant Staphylococcus aureus M11 assessed as survival rate at 20 mg/kg, ip measured after 7 days; type: organism-based; conditions: in vivo, 168 h, time 7 day
Staphylococcus aureus [24] = assay: Antibacterial activity against methicillin-resistant Staphylococcus aureus M11 infected in BALB/c mouse model of Sepsis assessed as vacuolar degeneration in renal epithelial cells at 10 mg/kg, ip measured after 48 hrs; type: functional, organism-based
[25] = Toxicity in BALB/c mouse assessed as change in serum biochemical parameters at 30 mg/kg, ip measured for 7 days; type: organism-based; conditions: in vivo, 168 h, time 7 day
Staphylococcus aureus [26] = assay: Antibacterial activity against methicillin-resistant Staphylococcus aureus M20 incubated for 16 to 20 hrs by broth microdilution method; type: functional; conditions: time 16-20 hrs
Staphylococcus aureus [27] = assay: Antibacterial activity against methicillin-resistant Staphylococcus aureus M11 infected in BALB/c mouse model of Sepsis assessed as reduction in bacterial load in liver at 20 mg/kg, ip measured after 48 hrs; type: functional
Staphylococcus aureus [28] = assay: Antibacterial activity against methicillin-resistant Staphylococcus aureus M11 infected in BALB/c mouse model of Sepsis assessed as reduction in bacterial count in skin tissues at 8 mg/kg measured after 24 hrs relative to control; type: functional; parameters: scale not given: the % may be the effect or the level left
Staphylococcus aureus [29] = assay: Antibacterial activity against methicillin-resistant Staphylococcus aureus M11 up to 128 ug/ml in presence of peptidoglycan incubated for 16 to 18 hrs; type: functional, organism-based; conditions: dose <= 128.0 µg/ml, time 16-18 hrs
[30] = Toxicity in BALB/c mouse assessed as normal appetite at 5 to 40 mg/kg, ip measured for 7 days; type: organism-based; conditions: in vivo, 168 h, dose 5-40 mg/kg, time 7 day
[31] = Toxicity in BALB/c mouse assessed as change in blood routine parameters at 30 mg/kg, ip measured for 7 days; type: organism-based; conditions: in vivo, 168 h, time 7 day
Staphylococcus aureus [32] = assay: Antibacterial activity against methicillin-resistant Staphylococcus aureus M11 infected in BALB/c mouse model of Sepsis assessed as reduction in inflammatory cell infiltration in skin tissues at 4 to 8 mg/kg measured after 24 hrs by H and E staining based analysis; type: functional, organism-based; conditions: dose 4-8 mg/kg
Staphylococcus aureus [33] = assay: Induction of ROS production in methicillin-resistant Staphylococcus aureus M11 assessed as fold increase at 32 ug/ml incubated for 1 hr by DCFH-DA probe based analysis relative to control; type: functional; conditions: dose 32 µg/ml
[34] = Toxicity in BALB/c mouse assessed as mortality rate at 40 mg/kg, ip measured for 7 days; type: organism-based; conditions: in vivo, time 7 day, read-out: Activity
Staphylococcus aureus [35] = assay: Antibacterial activity against methicillin-resistant Staphylococcus aureus M11 infected in BALB/c mouse model of Sepsis assessed as reduction in swelling in inner epidermal abscesses at 4 mg/kg measured after 24 hrs; type: functional, organism-based
[36] = Toxicity in BALB/c mouse assessed as change in blood routine parameters at 10 mg/kg, ip measured for 7 days; type: organism-based; conditions: in vivo, 168 h, time 7 day
[37] = Toxicity in KM mouse assessed as erythema on dorsal skin at <=20 mg/kg, sc; type: organism-based; conditions: in vivo
[38] = Toxicity in KM mouse assessed as abnormality in lung at 20 mg/kg, sc by H and E staining based analysis; type: organism-based; conditions: in vivo

SMILES | Activity [1] | Activity [4] | MIC (Staphylococcus aureus [5]) [µg/mL] | Activity (Staphylococcus aureus [6]) | MIC (Staphylococcus aureus [7]) [µg/mL] | Activity (Staphylococcus aureus [8]) | Activity (Staphylococcus aureus [9]) | Activity (Staphylococcus aureus [10]) | Activity [11] | MIC (Staphylococcus aureus [13]) [µg/mL] | Activity [14] | MIC (Staphylococcus aureus [15]) [µg/mL] | Activity (Staphylococcus aureus [16]) | Activity (Staphylococcus aureus [17]) | Activity (Staphylococcus aureus [18]) | Activity [19] | Activity (Staphylococcus aureus [20]) | Activity (Staphylococcus aureus [21]) | viability at 24 h, 32 times MIC [22] [%] | MIC (Staphylococcus aureus [26]) [µg/mL] | further results
CC(C)=CCc1c(OCCCCSc2cc[n+](CC(=O)N(CC(C)C)CC(C)C)cc2)ccc2ccc(=O)oc12.[Br-] | Non-toxic | Non-toxic | 1 | Active | 0.5 | Active | Active | Dose-dependent-effect; Compound Has Slightly Greater Efficacy Than Vancomycin | Non-toxic | 1 | Non-toxic | 0.5 | Dose-dependent-effect; Compound Has Slightly Greater Efficacy Than Vancomycin | Active | Active | Non-toxic | Active | Active | > 80 | 0.5 | Activity [2]: Non-toxic; Activity [3]: Toxic; Activity [12]: Non-toxic; Survival [23]: 66.7%; Activity (Staphylococcus aureus [24]): inactive; Activity [25]: Non-toxic; Activity (Staphylococcus aureus [27]): 3.81 log10CFU/ml; Activity (Staphylococcus aureus [28]): 99.994%; Activity (Staphylococcus aureus [29]): Active; Compound Showed Only Minor Or No Change In Mic; Activity [30]: Non-toxic; Activity [31]: Non-toxic; Activity (Staphylococcus aureus [32]): Active; fold change (FC) (Staphylococcus aureus [33]): 2; mortality at 168 h [34]: 83.3%; Activity (Staphylococcus aureus [35]): Active
CCCCCNC(=O)C[n+]1ccc(SCCCCCOc2ccc3ccc(=O)oc3c2CC=C(C)C)cc1.[Br-] | Non-toxic | Non-toxic | 1 | Active | 0.5 | Active | Active | Dose-dependent-effect; Compound Has Slightly Greater Efficacy Than Vancomycin | Non-toxic | 1 | Non-toxic | 0.5 | Dose-dependent-effect; Compound Has Slightly Greater Efficacy Than Vancomycin | Active | Active | Non-toxic | Active | Active | > 80 | 0.5 | Activity [36]: Non-toxic; Activity [37]: Non-toxic; Activity (Staphylococcus aureus [28]): 99.985%; Activity (Staphylococcus aureus [29]): Active; Compound Showed Only Minor Or No Change In Mic; Activity [38]: Non-toxic; Activity [30]: Non-toxic; Activity (Staphylococcus aureus [32]): Active; fold change (FC) (Staphylococcus aureus [33]): 1.8; Activity (Staphylococcus aureus [35]): Active
